Source: article PMC8291587, “Guanidine Derivatives: How Simple Structural Modification of Histamine H3R Antagonists Has Led to the Discovery of Potent Muscarinic M2R/M4R Antagonists” (ACS Chemical Neuroscience, 2021)

Assays:
M2R/M3R = assay: Ex vivo screening of muscarinic M2R/M3R antagonists on isolated guinea pig ileum (methacholine-induced contraction); conditions: methacholine as agonist
Procedure: Another group of guinea pig intestinal receptors able to regulate smooth muscle contraction is that of the muscarinic receptors, including M2R and M3R. All compounds were tested on the muscarinic receptors using the same animal model. This approach is similar to measuring histamine H1R antagonist activity. Methacholine was used as a receptor agonist, while 1,1-dimethyl-4-diphenylacetoxypiperidinium iodide (4-DAMP) was used as a reference M3R antagonist. As methacholine is not selective according to M2R and M3R, it is not possible to precisely specify which one was responsible for the effect observed on the tissue preparations. Some authors often attribute the results to the minor M3R subtype (gpM2R:M3R = 4:1 or 5:1), which is generally associated with the contractions,[38] but such an overinterpretation may be misleading, as indicated by our further hM1R-hM5R radioligand binding assay results shown in Table 2. […] These findings partially explain the influence of ADS10227 on the contractility of guinea pig ileum following electrical stimulation. […] In subsequent studies, we tried to clarify this.
Male guinea pigs, weighing 300–400 g, were euthanized by a blow to the neck. A 20–30 cm length of the distal ileum, apart from the terminal 5 cm, was rapidly removed and placed in phosphate buffer at room temperature (pH 7.4) containing (mM) NaCl (136.9), KCl (2.6), KH2PO4 (1.47), Na2HPO4 (9.58), and indomethacin (1 × 10^–6 mol/L)). The intraluminal content was rinsed, and the isolated intestine was cut into 1.5–2 cm segments. The preparations were mounted isotonically in a 20 mL organ bath filled with Tyrode’s buffer: composition (mM) NaCl (137), KCl (2.7), MgCl2·6H2O (1.0), CaCl2 (1.8), NaH2PO4·H2O (0.4), NaHCO3 (11.9), glucose (5.61), and indomethacin (3 × 10^–7 mol/L). The solution was continuously bubbled with a 95% O2:5% CO2 mixture and maintained at 37 °C under a constant load of 0.5 g (Hugo Sachs Hebel–Messvorsatz (Tl-2)/HF-modem; Hugo Sachs Elektronik, Hugstetten, Germany) connected to a pen recorder (Kipp & Zonen BD41, Delft, Holland). During an equilibration period of 40 min, Tyrode’s buffer was changed every 10 min. The first cumulative concentration–response curve was determined for methacholine (10 nM to 3 mM) at increasing concentrations spaced by 3- or 3.3-fold. The second to the fourth (or fifth) curves were measured in the presence of an increasing concentration of antagonist (incubation time 20 min). The pA2 values were calculated according to Arunlakshana and Schild.[37] Statistical analysis was carried out with the Students’ t test. In all tests, a p < 0.05 was considered statistically significant.

M2R = test system: M2R; parameters: method as in PMID 11421251; conditions: cited from earlier work
hH3R = molecular target: T1, hH3R (Homo sapiens, UniProt Q9Y5N1); assay: hH3R radioligand displacement binding assay ([3H]-Nα-methylhistamine, HEK-293 cell membranes); conditions: for Ki: [3H]-Nα-methylhistamine, HEK-293 membranes, read-out: hH3R -log(Ki) ± sem (converted)
T1 construct: expressed in transfected cells; membrane fractions
Procedure: [^3H]-N^α-Methylhistamine was used as a radiolabeled ligand.
The radioligand displacement binding assay was performed in membrane fractions of HEK-293 cells stably expressing hH3R. Cell cultivation and membrane preparation were performed according to Kottke et al.[43] […] The total assay volume was set to 200 μL. The compounds were tested in several appropriate concentrations between 100 μM and 0.1 nM. Pipetting was partly done by Freedom Evo (Tecan). […] The membrane fraction (20 μg/well), test compounds, and radiolabeled ligand were incubated for 90 min at 25 °C while shaking. The bound radioligand was separated from free radioligand by filtration through GF/B filters pretreated with 0.3% (m/v) polyethylenimine using a cell harvester. Radioactivity was determined by liquid scintillation counting using a MicroBeta Trilux (PerkinElmer). The data were obtained in duplicates in at least three independent experiments. Nonspecific binding was subtracted from the raw data to calculate specific-binding values. The evaluation was performed with GraphPad Prism 6.1 (San Diego, CA, USA) using nonlinear regression (one-site competition with a logarithmic scale). The Ki values were calculated from the IC50 values using the Cheng–Prusoff equation.[44] The statistical calculations were performed on −log Ki. The mean values and 95% confidence intervals were transformed to nanomolar concentrations.

[1] = test system: electrically stimulated guinea pig ileum; assay: Decrease of contractility in electrically stimulated guinea pig ileum (-log EC50 determination); conditions: electrically stimulated guinea pig ileum; for EC50: Cavia porcellus, read-out: Decrease of contractility (-logEC50 ± sem) (converted)
Procedure: A standard ex vivo assay based on the relaxant response of histamine H3R agonists to electrically driven guinea pig ileum was used to test the influence of ADS compounds on the reduction of electrically evoked tissue contraction. […] The −log EC50 value for RAMH and ADS compounds were evaluated. […] Following this, we decided to evaluate the ADS series as potential M2R/M3R ligands on the isolated guinea pig ileum.
Male guinea pigs, weighing 300–400 g, were euthanized by a blow to the neck. A 20–30 cm length of the distal ileum, apart from the terminal 5 cm, was rapidly removed and placed in phosphate buffer at room temperature (pH 7.4) containing (mM) NaCl (136.9), KCl (2.6), KH2PO4 (1.47), Na2HPO4 (9.58), and indomethacin (1 × 10^–6 mol/L)). The intraluminal content was rinsed, and the isolated intestine was cut into 1.5–2 cm segments. The preparations were mounted between two platinum electrodes isotonically in a 20 mL organ bath filled with Krebs buffer: composition (mM) NaCl (118), KCl (5.6), MgSO4 (1.18), CaCl2 (2.5), NaH2PO4·H2O (1.28), NaHCO3 (25), glucose (5.55), and indomethacin (3 × 10^–7 mol/L). The solution was continuously bubbled with a 95% O2:5% CO2 mixture and maintained at 37 °C under a constant load of 1.0 g (Hugo Sachs Hebel–Messvorsatz (Tl-2)/HF-modem; Hugo Sachs Elektronik, Hugstetten, Germany) connected to a pen recorder (Kipp & Zonen BD41, Delft, Holland). During an equilibration period of 60 min, Krebs buffer was changed every 10 min. Following this, the preparations were continuously stimulated at 15–20 V, at a frequency of 0.1 Hz for a duration of 0.5 ms, with rectangular-wave electrical pulses (Grass Stimulator S-88; Grass Instruments Co., Quincy, Massachusetts, USA). […] Cumulative concentration–response curve was determined to RAMH or tested agonist (10 nM to 10 mM) at increasing concentrations spaced by 3- or 3.3-fold. The agonist potency is expressed as pD2 value (−log EC50) ± sem.

H1R [2] = molecular target: T2, H1R (Cavia porcellus, UniProt P31389); assay: Ex vivo screening of histamine H1R antagonists on guinea pig ileum, variant with 0.05 μM atropine; conditions: isolated guinea pig ileum, histamine as agonist, read-out: H1R+atropine pA2 gpi ± sem (converted)
T2 construct: from tissue; host or cells: isolated distal ileum of male guinea pigs
Procedure: (§1) The second histamine receptor located in the guinea pig ileum is H1R. […] The H1R antagonistic effect was measured on isolated guinea pig ileum stimulated to contract by histamine.[37] To assess and exclude the influence of the ADS compounds on muscarinic receptors, two test variations were used: one with the addition of 0.05 μM atropine and one without.
(§2) Male guinea pigs, weighing 300–400 g, were euthanized by a blow to the neck. A 20–30 cm length of the distal ileum, apart from the terminal 5 cm, was rapidly removed and placed in phosphate buffer at room temperature (pH 7.4) containing (mM) NaCl (136.9), KCl (2.6), KH2PO4 (1.47), Na2HPO4 (9.58), and indomethacin (1 × 10^–6 mol/L). The intraluminal content was rinsed, and the isolated intestine was cut into 1.5–2 cm segments. The preparations were mounted isotonically in a 20 mL organ bath filled with Krebs buffer: composition (mM) NaCl (118), KCl (5.6), MgSO4 (1.18), CaCl2 (2.5), NaH2PO4·H2O (1.28), NaHCO3 (25), glucose (5.55), and indomethacin (3 × 10^–7 mol/L). […] The solution was continuously bubbled with a 95% O2:5% CO2 mixture and maintained at 37 °C under a constant load of 0.5 g (Hugo Sachs Hebel–Messvorsatz (Tl-2)/HF-modem; Hugo Sachs Elektronik, Hugstetten, Germany) connected to a pen recorder (Kipp & Zonen BD41, Delft, Holland). During an equilibration period of 40 min, Krebs buffer was changed every 10 min. The first cumulative concentration–response curve was determined for histamine (10 nM to 10 mM) at increasing concentrations spaced by 3- or 3.3-fold. The second to the fourth (or fifth) curves were measured in the presence of an increasing concentrations of antagonist (incubation time 10 min). The pA2 values were calculated according to Arunlakshana and Schild.[37] Statistical analysis was carried out with the Students’ t test. In all tests, a p < 0.05 was considered statistically significant.

H1R [3] = molecular target: T2, H1R; assay: Ex vivo screening of histamine H1R antagonists on guinea pig ileum, variant without atropine; conditions: isolated guinea pig ileum, histamine as agonist, read-out: H1R pA2 gpi ± sem (converted)
Procedure: as §1, §2

T1 sequence (Q9Y5N1 whole entry): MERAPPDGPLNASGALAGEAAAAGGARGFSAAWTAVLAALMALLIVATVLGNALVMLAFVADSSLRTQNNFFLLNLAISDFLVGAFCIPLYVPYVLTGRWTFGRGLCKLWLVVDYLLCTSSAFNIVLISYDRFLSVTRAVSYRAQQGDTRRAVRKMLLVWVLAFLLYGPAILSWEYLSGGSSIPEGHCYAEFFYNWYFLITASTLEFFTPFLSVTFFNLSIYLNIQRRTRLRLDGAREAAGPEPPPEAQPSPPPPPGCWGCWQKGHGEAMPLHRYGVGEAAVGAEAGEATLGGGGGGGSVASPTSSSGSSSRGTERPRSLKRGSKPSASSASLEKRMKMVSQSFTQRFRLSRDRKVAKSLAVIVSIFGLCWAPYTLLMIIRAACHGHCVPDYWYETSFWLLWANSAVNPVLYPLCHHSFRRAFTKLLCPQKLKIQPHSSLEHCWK
T2 sequence (P31389 whole entry): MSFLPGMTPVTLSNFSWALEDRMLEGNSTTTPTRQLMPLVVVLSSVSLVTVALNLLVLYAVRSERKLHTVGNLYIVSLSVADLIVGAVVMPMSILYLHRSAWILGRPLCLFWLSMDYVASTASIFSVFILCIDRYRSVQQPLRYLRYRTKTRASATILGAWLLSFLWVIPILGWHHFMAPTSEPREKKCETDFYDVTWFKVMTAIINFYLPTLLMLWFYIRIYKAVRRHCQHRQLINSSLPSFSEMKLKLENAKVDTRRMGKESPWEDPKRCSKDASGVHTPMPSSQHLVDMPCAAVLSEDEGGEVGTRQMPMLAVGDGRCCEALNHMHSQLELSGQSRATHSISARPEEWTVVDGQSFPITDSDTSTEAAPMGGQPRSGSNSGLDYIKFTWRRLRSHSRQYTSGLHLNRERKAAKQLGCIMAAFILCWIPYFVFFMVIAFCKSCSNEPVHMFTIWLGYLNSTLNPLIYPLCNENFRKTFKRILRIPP

Ki (hH3R) | EC50 [1] | Kb (H1R [2]) | Kb (H1R [3]) | Compound | M2R/M3R pA2 gpi ± sem (M2R/M3R) | effective dose in the rodent cognition model lower than that known to increase heart rate in rats (M2R) | Kd (hH3R; radioligand used at 2 nM) | Decrease of contractility (-logEC50 ± sem) [1] | intrinsic activity (maximal response as fraction of maximal response of the system) ([1]; from concentration–response curves)
– | – | – | – | C[N+]1(C)CCC(OC(=O)C(c2ccccc2)c2ccccc2)CC1.[I-] [4-DAMP, 1,1-dimethyl-4-diphenylacetoxypiperidinium iodide, reference compound] | 9.05 ±0.11 | – | – | – | –
– | – | – | – | COc1ccc(S(=O)(=O)c2ccc(C3(C4CCN(C5CCN(C(=O)c6cccc(C)c6N)CC5)CC4)OCCO3)cc2)cc1 [SCH-217443] | – | 30 fold | – | – | –
1.35 µM | 3.09 µM | 0.1 µM | 0.105 µM | N=C(N)N(CCCCN1CCN(Cc2ccc(COc3ccccc3)cc2)CC1)Cc1ccccc1 [ADS10185] | 5.77±0.15 | – | – | – | –
– | – | – | – | CNCCc1cnc[nH]1 [[^3H]N^α-methylhistamine, reference compound] | – | – | 0.00308 µM | – | –
1.62 µM | 0.724 µM | 0.12 µM | 0.0759 µM | [H]/N=C(\N)N(CCCCN1CCN(CC2CCC(COc3ccccc3)CC2)CC1)Cc1ccc(C(F)(F)F)cc1 (stereo not drawn) [ADS10207] | 5.68±0.15 | – | – | – | –
2.04 µM | 0.832 µM | 0.166 µM | 0.145 µM | N=C(N)N(CCCCN1CCN(C[C@H]2CC[C@H](COc3ccccc3)CC2)CC1)Cc1ccccc1 [ADS10283] | 6.02±0.07 | – | – | – | –
1.66 µM | 2.29 µM | 0.151 µM | 0.182 µM | N=C(N)N(CCCCN1CCN(Cc2ccc(COc3ccccc3)cc2)CC1)Cc1ccc(C(F)(F)F)cc1 [ADS10183] | 5.83±0.22 | – | – | – | –
1.66 µM | 0.575 µM | 0.0977 µM | 0.0603 µM | N=C(N)N(CCCCN1CCN(Cc2ccc(Oc3ccccc3)cc2)CC1)Cc1ccc(C(F)(F)F)cc1 [ADS10210] | 5.83±0.14 | – | – | – | –
– | – | – | – | C[C@@H](N)Cc1c[nH]cn1 [RAMH, (R)(−)-α-methylhistamine, reference compound] | – | – | – | 7.70±0.07 | 0.82
